Data from article PMC7150796 (Viruses, 2020).
Entries after “also recorded” stand apart in the source; their conditions may differ. Read-outs that look alike come from different tables or passages of the source.

Assays:
[1] = Resazurin cell viability (cell toxicity) assay; conditions: African green monkey
rZIKV-ZsGreen [2] = test: microbe, parasite or virus in culture; format: cell-based, Zika virus; conditions: 24 h; for EC50 / EC90: Zika virus, Vero; for EC50: read-out: Inhibition Efficacy EC50; for EC90: read-out: Inhibition Efficacy EC90; for Inhibition Efficacy EC50 / Inhibition Efficacy EC90: rZIKV-ZsGreen, Vero B4 cells, inhibition of ZsGreen expression, highest concentration 100 µM
TBEV = format: cell-based, tick-borne encephalitis virus; conditions: MOI 0.1, Vero B4, 24 hpi
rZIKV-ZsGreen [3] = test: Time of drug addition assay
YFV = format: cell-based, yellow fever virus; conditions: MOI 0.1, Vero B4, 48 hpi
ZIKV [4] = test: Focus-forming assay, ZIKV; format: cell-based, Zika virus; conditions: MOI 0.1, Vero B4, 24 hpi
WNV = test: Focus-forming assay, WNV; format: cell-based, West Nile virus
JEV = test: Focus-forming assay, JEV; format: cell-based, Japanese encephalitis virus
[5] = test system: wt ZIKV African lineage (MR766, Uganda strain); test: Plaque inhibition assay, wt ZIKV African lineage; format: cell-based, Zika virus; conditions: 2.5 µM, Vero B4 cells, 4 days
[6] = test system: two wt ZIKV lineages, Asian and African; format: cell-based, Zika virus; conditions: 2.5 µM
DENV2 = test: Focus-forming assay, DENV2; format: cell-based, dengue virus type 2
[7] = test system: wt ZIKV Asian lineage (BeH819015, Brazil strain); test: Plaque inhibition assay, wt ZIKV Asian lineage; conditions: Vero B4 cells, 4 days
ZIKV [8] = conditions: ref 40 (Lei Cai et al.); read-out: EC50 against ZIKV; cited from earlier work
in vitro = conditions: African green monkey

Compound	viability at 24 h, 25 µM [1]	viability at 24 h, 50 µM [1]	viability at 24 h, 100 µM [1]	EC50 (rZIKV-ZsGreen [2])	EC90 (rZIKV-ZsGreen [2])	viral titer reduction (WNV)	viral titer reduction (JEV)	viral titer reduction (DENV2)	Inhibition Efficacy EC50 (rZIKV-ZsGreen [2])	Inhibition Efficacy EC90 (rZIKV-ZsGreen [2])	further results
O=C(Nc1ccccc1C(=O)Nc1ccccc1C(=O)O)c1ccccc1 [Benzavir-1, 2-{[2-(benzoylamino)benzoyl]amino}-benzoic acid]	98.8 ± 3.4%	88.3 ± 1.4%	88.1 ± 2.1%	3 ± 0.1 µM	3.3 ± 0.1 µM						
O=C(Nc1cc(F)c(F)cc1C(=O)Nc1ccccc1C(=O)O)c1ccccc1F [Benzavir-2, 2-[4,5-Difluoro-2-(2-fluorobenzoylamino)-benzoylamino]benzoic acid]	100 ± 1.8%	96.8 ± 0.6%	94.3 ± 1.8%	0.8 ± 0.1 µM	1.2 ± 0.3 µM	2.2 × 10^4 fold	7.5 × 10^3 fold	5.6 × 10^4 fold			viral titer reduction (TBEV; benzavir-2 2.5 µM): 7.5 × 10^3 fold; inhibitory effect, time of addition (rZIKV-ZsGreen [3]; 10 µM added at 2–4 h post-infection, read 24 h): most pronounced; inhibitory effect, time of addition (rZIKV-ZsGreen [3]; 10 µM, binding and entry steps (0–2 h), read 24 h): less affected; inhibitory effect, time of addition (rZIKV-ZsGreen [3]; 10 µM, later time-points post-infection, read 24 h): less inhibition; inhibitory effect, time of addition (rZIKV-ZsGreen [3]; 10 µM, pre-incubation prior to infection (−2 h), compared to 2–4 h): much lower; viral titer reduction (YFV; benzavir-2 2.5 µM): 1.5 × 10^3 fold; viral titer reduction (ZIKV [4]; benzavir-2 2.5 µM): 1.0 × 10^3 fold; reduction of plaque formation [5]: 94%; CPE in cells infected with progeny virus from treated cells ([6]; day 2 post-progeny virus transfer): minor CPE; plaque formation in cells infected with progeny virus from treated cells ([6]; day 4, crystal violet): only a few visible plaques; reduction of plaque formation ([7]; 2.5 µM, Asian lineage): 88%; plaque formation, dose-dependent ([7]; benzavir-2 from 20 to 0.6 µM): significant reduction of plaque formation at all applied concentrations
CC(C)(C)C(=O)Nc1cc(F)c(F)cc1C(=O)Nc1ccccc1C(=O)O [Compound 17d]	105.1 ± 0.1%	106 ± 4.2%	104.9 ± 0.9%						no antiviral activity; also recorded: Not achieved	Not achieved	
O=C(Nc1cc(Cl)ccc1C(=O)Nc1ccccc1C(=O)O)c1ccccc1F [Compound 35f]	105 ± 5%	96.5 ± 3.7%	92.1 ± 3.9%	6.1 ± 1.4 µM	14.9 ± 0.9 µM						
NC(=O)c1nc(F)c[nH]c1=O [Favipiravir, reference compound]									Not achieved	Not achieved	EC50 (ZIKV [8]): 111 ± 13.1 µM; viability at 24 h, 25 µM ([1]; Vero B4 cells): 97.4 ± 0.7%; viability at 24 h, 50 µM ([1]; Vero B4 cells): 95 ± 1.4%; viability at 24 h, 100 µM ([1]; Vero B4 cells): 97.9 ± 2.2%; Inhibition Efficacy EC50 (rZIKV-ZsGreen [2]; listed as favipiravir): no antiviral activity
NC(=O)c1ncn([C@@H]2O[C@H](CO)[C@@H](O)[C@H]2O)n1 [Ribavirin, reference compound]				45.5 ± 13.5 µM	114 ± 18 µM	no significant activity	no significant activity	1.1 × 10^1 fold			viral titer reduction (TBEV; ribavirin 50 µM): 1.2 × 10^1 fold; viral titer reduction (YFV; ribavirin 50 µM): 0.9 × 10^1 fold; viral titer reduction (ZIKV [4]; ribavirin 50 µM): 1.0 × 10^1 fold; viability at 24 h, 25 µM (in vitro): 96 ± 1%; viability at 24 h, 50 µM (in vitro): 95 ± 2.8%; viability at 24 h, 100 µM (in vitro): 93.5 ± 3.4%; plaque formation, dose-dependent ([7]; ribavirin from 200 to 6.3 µM): only showed inhibition of plaque formation at 200 µM
